Measured values published in patent US8927538B2, “Carbazole linked pyrrolo[2,1-c][1,4]benzodiazefine hybrids as potential anticancer agents and process for the preparation thereof” (Council of Scientific & Industrial Research, priority 2010, dated 2015).

Assays:
breast cancer cell lines = experiment: NCI SRB cytotoxicity, breast panel; type: cell-based, human; details: average of six to eight cell lines
From the text: (§1) The C8-linked carbazole-PBD hybrids have been tested against sixty human tumour cell lines derived from nine cancer types (leukemia, non-small cell lung cancer, colon cancer, CNS cancer, melanoma, ovarian cancer, renal cancer, prostate cancer and breast cancer) as per NCI protocol, For each compound, dose response curves for individual cell lines have been measured at a minimum of five concentrations at 10 fold dilutions. A protocol of 48 hrs continuous drug exposure has been used, and a sulforhodamine B (SRB) protein assay was used to estimate cell viability or growth. The concentration for 50% cell growth inhibition (GI50), total cell growth inhibition (TGI, 0% growth) and 50% cell death (LC50, […]) compared with the control has been calculated (Table-3).
(§2) Compounds 6c and 14a have been evaluated for in vitro cytotoxicity in sixty cell lines from nine human cancer types of lung (Hop-62, NCI-H226, NCI-H522), leukemia (K-562, SR), colon (HCT-116, HCT-15, HCC-2998), CNS(SF-539), melanoma (SK-MEL-5, UACC-62, M14), ovarian (IGROV1), renal (A498), prostate (PC3) breast (BT-549, MDA-MB-435, HS578T) origin. The results are expressed as percent of cell growth determined relative to that of untreated control cells (Table 1).

CNS cancer cell lines = experiment: NCI SRB cytotoxicity, CNS panel; type: cell-based, human; details: average of six to eight cell lines
From the text: as §1, §2

[1] = test system: Melanoma cancer cell lines; experiment: NCI SRB cytotoxicity, melanoma panel; type: cell-based, human; details: average of six to eight cell lines
From the text: as §1, §2

HS 578T = experiment: NCI SRB cytotoxicity, HS 578T; type: cell-based, human; details: Breast HS 578T, 48 hrs exposure
From the text: as §1, §2

SK-MEL-28 = experiment: NCI SRB cytotoxicity, SK-MEL-28; type: cell-based, human; details: Melanoma SK-MEL-28, 48 hrs exposure
From the text: as §1, §2

SK-MEL-2 = experiment: NCI SRB cytotoxicity, SK-MEL-2; type: cell-based, human; details: Melanoma SK-MEL-2, 48 hrs exposure
From the text: as §1, §2

RXF 393 = experiment: NCI SRB cytotoxicity, RXF 393; type: cell-based, human; details: Renal RXF 393, 48 hrs exposure
From the text: as §1, §2

[2] = test system: duplex-form calf thymus DNA (CT-DNA); experiment: Thermal denaturation studies (DNA binding); details: [PBD]:[DNA] molar ratio 1:5, CT-DNA 100 μM, ligand 20 μM; for ΔTm after incubation at 37 °C for 0 h: pH 7.00, 0 h; for ΔTm after incubation at 37 °C for 18 h: pH 7.00, 18 h
Method: Compounds have been subjected to thermal denaturation studies with duplex-form calf thymus DNA (CT-DNA) using a modification of a reported procedure. Working solutions in aqueous buffer ([…] NaH2PO4/Na2HPO4, 1 mM Na2EDTA, pH 7.00±0.01) containing CT-DNA (100 μM in phosphate) and the PBD (20 μM) have been prepared by addition of concentrated PBD solutions in DMSO to obtain a fixed [PBD]/[DNA] molar ratio of 1:5. The DNA-PBD solutions have been incubated at 37° C. for 0 and 18 hrs prior to analysis. Samples have been monitored at 260 nm using a Beckman DU-800 spectrophotometer fitted with high performance temperature controller, and heated at 1° C. min^−1 in the 40-110° C. range. DNA helix→coil transition temperatures (Tm) have been obtained from the maxima in the d(A260)/dT derivative plots. Drug-induced alterations in DNA melting behavior are given by: […]Tm=Tm(DNA+PBD)-Tm(DNA alone), where the Tm value for the PBD-free CT-DNA is 68.5 […]0.01.
The DNA-binding for these C8-linked carbazole-PBD hybrids has been examined by thermal denaturation studies using calf thymus (CT) DNA. […] Data for 6a, 6b, 6c, 14a, 14b, and 14d and DC-81 are included in Table 5 for comparison.

EKVX = experiment: NCI SRB cytotoxicity, EKVX; type: cell-based, human; details: Non-small cell lung EKVX, 48 hrs exposure
From the text: as §1, §2

MDA-MB- = experiment: NCI SRB cytotoxicity, MDA-MB-; type: cell-based, human; details: Breast MDA-MB-, 48 hrs exposure
From the text: as §1, §2

UACC-62 = experiment: NCI SRB cytotoxicity, UACC-62; type: cell-based, human; details: Melanoma UACC-62, 48 hrs exposure
From the text: as §1, §2

MDA-MB-435 = experiment: NCI SRB cytotoxicity, MDA-MB-435; type: cell-based, human; details: Breast MDA-MB-435, 48 hrs exposure
From the text: as §1, §2

HCC-2998 = experiment: NCI SRB cytotoxicity, HCC-2998; type: cell-based, human; details: Colon HCC-2998, 48 hrs exposure
From the text: as §1, §2

COLO 205 = experiment: NCI SRB cytotoxicity, COLO 205; type: cell-based, human; details: Colon COLO 205, 48 hrs exposure
From the text: as §1, §2

Renal cancer cell lines = experiment: NCI SRB cytotoxicity, renal panel; type: cell-based, human; details: average of six to eight cell lines
From the text: as §1, §2

SNB-75 = experiment: NCI SRB cytotoxicity, SNB-75; type: cell-based, human; details: CNS SNB-75, 48 hrs exposure
From the text: as §1, §2

[3] = test system: Non small cell lung cancer cell lines; experiment: NCI SRB cytotoxicity, non-small cell lung panel; type: cell-based, human; details: average of six to eight cell lines
From the text: as §1, §2

[4] = test system: ovarian cancer cell lines; experiment: NCI SRB cytotoxicity, ovarian panel; type: cell-based, human; details: average of six to eight cell lines
From the text: as §1, §2

SNB-19 = experiment: NCI SRB cytotoxicity, SNB-19; type: cell-based, human; details: CNS SNB-19, 48 hrs exposure
From the text: as §1, §2

UACC-257 = experiment: NCI SRB cytotoxicity, UACC-257; type: cell-based, human; details: Melanoma UACC-257, 48 hrs exposure
From the text: as §1, §2

MALME-3M = experiment: NCI SRB cytotoxicity, MALME-3M; type: cell-based, human; details: Melanoma MALME-3M, 48 hrs exposure
From the text: as §1, §2

ACHN = experiment: NCI SRB cytotoxicity, ACHN; type: cell-based, human; details: Renal ACHN, 48 hrs exposure
From the text: as §1, §2

CCRF-CEM = experiment: NCI SRB cytotoxicity, CCRF-CEM; type: cell-based, human; details: Leukemia CCRF-CEM, 48 hrs exposure
From the text: as §1, §2

SK-MEL-5 = experiment: NCI SRB cytotoxicity, SK-MEL-5; type: cell-based, human; details: Melanoma SK-MEL-5, 48 hrs exposure
From the text: as §1, §2

CAKI-1 = experiment: NCI SRB cytotoxicity, CAKI-1; type: cell-based, human; details: Renal CAKI-1, 48 hrs exposure
From the text: as §1, §2

HL-60(TB) = experiment: NCI SRB cytotoxicity, HL-60(TB); type: cell-based, human; details: Leukemia HL-60(TB), 48 hrs exposure
From the text: as §1, §2

SF-539 = experiment: NCI SRB cytotoxicity, SF-539; type: cell-based, human; details: CNS SF-539, 48 hrs exposure
From the text: as §1, §2

Row | SMILES | Log10 GI50 (breast cancer cell lines) [mol/L] | Log10 LC50 (concentration causing 50% lethality) (breast cancer cell lines) [mol/L] | Log10 GI50 (CNS cancer cell lines) [mol/L] | Log10 LC50 (concentration causing 50% lethality) (CNS cancer cell lines) [mol/L] | Log10 GI50 [1] [mol/L] | Log10 LC50 (concentration causing 50% lethality) [1] [mol/L] | GI50 (HS 578T) [µM] | GI50 (SK-MEL-28) [µM] | GI50 (SK-MEL-2) [µM] | GI50 (RXF 393) [µM] | ΔTm after incubation at 37 °C for 0 h [2] [°C] | ΔTm after incubation at 37 °C for 18 h [2] [°C] | GI50 (EKVX) [µM] | GI50 (MDA-MB-) [µM] | GI50 (UACC-62) [µM] | GI50 (MDA-MB-435) [µM] | GI50 (HCC-2998) [µM] | GI50 (COLO 205) [µM] | Log10 LC50 (concentration causing 50% lethality) (Renal cancer cell lines) [mol/L] | GI50 (SNB-75) [µM] | further results
1 | COc1cc2c(cc1OCCCCCn1c3ccccc3c3ccccc31)N=C[C@@H]1CCCN1C2=O [Compound 6c, 7-Methoxy-8-[5-(9H-9-carbazoly)pentyloxy]-(11aS)-1,2,3,11a-tetrahydro-5H-Pyrrolo[2,1-c][1,4]benzodiazepin-5-one] | −5.67 | −4.47 | −5.76 | −4.97 | −5.71 | −4.74 | 1.97 | 1.8 | 1.67 | 4.34 | 4.1 | 4.9 | 5.27 | 2.14 | 1.86 | 1.73 | 1.71 | 2.11 | −4.99 | 1.05 | Log10 GI50 [3]: −5.64 mol/L; Log10 LC50 (concentration causing 50% lethality) [3]: −4.78 mol/L; Log10 GI50 [4]: −5.57 mol/L; Log10 LC50 (concentration causing 50% lethality) [4]: −4.59 mol/L; GI50 (SNB-19): 2.05 µM; GI50 (UACC-257): 2.29 µM; GI50 (MALME-3M): 2.2 µM; GI50 (ACHN): 1.74 µM; GI50 (CCRF-CEM): 1.97 µM; GI50 (SK-MEL-5): 1.73 µM; GI50 (CAKI-1): 1.93 µM; GI50 (HL-60(TB)): 1.72 µM; GI50 (SF-539): 1.85 µM
2 | COc1cc2c(cc1OCCCN1CCN(CCCn3c4ccccc4c4ccccc43)CC1)N=C[C@@H]1CCCN1C2=O [Compound 14a] | −6.96 | −5.59 | −6.96 | −5.67 | −6.91 | −6.06 | 0.16 | 0.06 | 0.19 | 0.22 | 7.5 | 8.2 | 0.14 | 0.95 | 0.15 | < 0.01 | 0.13 | 0.07 | −5.61 | 0.15 | Log10 GI50 (Renal cancer cell lines): −6.72 mol/L; Log10 GI50 [3]: −6.96 mol/L; Log10 LC50 (concentration causing 50% lethality) [3]: −5.62 mol/L; Log10 GI50 [4]: −7.22 mol/L; Log10 LC50 (concentration causing 50% lethality) [4]: −5.80 mol/L; GI50 (SNB-19): 0.21 µM; GI50 (UACC-257): 0.15 µM; GI50 (MALME-3M): 0.15 µM; GI50 (ACHN): 0.25 µM; GI50 (CCRF-CEM): 0.02 µM; GI50 (SK-MEL-5): 0.23 µM; GI50 (CAKI-1): 0.12 µM; GI50 (HL-60(TB)): 0.03 µM; GI50 (SF-539): 0.12 µM
